Experimental data as given in patent US20260364040A1, “MONO- AND BIS-NITROSYLATED PROPANEDIOLS FOR USE IN THE TREATMENT OF A THROMBOEMBOLIC DISEASE” (ATTGENO AB, priority 2023, published 2026).

Legend:
[1] = tested on: VASP (Ser239 phosphorylation), NO/cyclic GMP signalling in human platelets; experiment: Ser239-specific VASP phosphorylation in isolated human platelets (Western blotting); format: cell-based; conditions: 5 min exposure, unstimulated and SFLLRN-stimulated platelets, n=3
Method: FIG. 9: Increases in Ser 239-specific VASP phosphorylation in platelets. Suspensions of isolated human blood platelets were stimulated by either PDNO or nitroglycerine. The platelets were exposed to the NO-donors for 5 min followed by Western immuno blotting for phosphoVASP detection. These experiments were conducted in unstimulated and SFLLRN-stimulated platelets. The PAR-1 agonist was added 2 min after PDNO/nitroglycerine. The bars represent mean value and standard deviation (n=3).
In platelets and vascular smooth muscle cells, the cytoskeleton-binding protein vasodilator-stimulated phosphoprotein (VASP) is a main molecular target for NO/cyclic GMP signalling pathway. Ser239 specific phosphorylation of VASP following NO exposure of platelets is believed to be a pivotal molecular mechanism underlying anti-aggregatory/antithrombotic effects of NO. The effect of PDNO on Ser239-specific VASP phosphorylation was analysed by Western (immuno) blotting.
Aliquots of isolated platelet suspensions were exposed to either PDNO or nitroglyceine for 5 min. This series of experiments were conduced both on resting and SFLLRN-stimulated platelets.
Specifically, NO/cyclic GMP-induced phosphorylation of Ser239 on vasodilator-stimulated phosphoproteins (VASP) was detected by Western blotting. […]

[2] = tested on: SFLLRN (PAR-1 agonist) stimulated platelets in human whole blood; experiment: Platelet aggregation in human whole blood (impedance, Multiplate aggregometer); format: cell-based; conditions: drug added 2 min prior to SFLLRN, impedance 10 min, AUC, n=4
Method: FIG. 8: Platelet aggregation in whole blood. Suspensions of human blood were stimulated by the PAR-1 agonist […] in the absence (open bar) and presence of either PDNO (black bar) or nitroglycerine (grey bar). The NO-donating drugs were introduced to the blood 2 min prior to SFLLRN. Platelet aggregation response was analysed as increases in impedance over a period of 10 min and is expressed as area under the curve. The bars represent mean value and standard deviation (n=4).
Potential anti-thrombotic effect of PDNO in vitro was evaluated by analysing aggregation responses to the thrombin mimetic hexapeptide SFLLRN. […]
Heparinized human or pig blood (0.5 ml) was diluted 1:1 with Krebs-Ringer glucose (KRG) buffer (isotone saline, pH 7.4). […] Platelet aggregation in vitro (human blood) and ex vivo (pig blood) was measured as increase in electrical impedance between two platinum electrodes. […]
In the in vitro experiments, PDNO or nitroglycerine (used as control drug) was introduced 2 min prior to the hexapeptide SFLLRN. […] Aggregation responses were registered during 10 min and expressed as area under curve.
Platelet aggregation in whole blood (human blood with heparin as anticoagulant) was analysed as increases in electrical resistance (impedance changes between two platinum electrodes) using a Multiplate aggregometer.

[3] = rabbit model, Cederqvist et al. 1994; cited from earlier work
[4] = Circulation times and in vivo half-life estimation from injections and infusions; set-up: species or system pig
Method: Intraarterial injections in the left CCA and left CFA and central intravenous injections (PDNO 0.5-4 micromol) were used to estimate in vivo half-life of PDNO in anesthetized, instrumented pigs (n=2). Regional blood flow, mean systemic arterial pressure (MAP), end-tidal nitric oxide (ETNO) and arterial blood gases were measured.
In addition, 10 ml of 5% sodium bicarbonate solution was injected at these sites.
Between the local intraarterial infusion routes, intravenous infusions in the central venous catheter at four doses (3, 10, 30 and 100 nmol kg^−1 min^−1, 10 minutes per dose) were given for reference. There was a washout period of 60 minutes between the PDNO administration.
Primary outcome was effects on regional blood flow, systemic blood pressure and end-tidal nitric oxide (ETNO). […]
The median (25-75 percentiles) circulation times from the carotid and femoral intraarterial injection sites were to first exhalation with increased ETNO 13.5 s (12.3-15.4, n=13) s and 13.7 s (12.9-15.2, n=9), respectively, and from the central intravenous injection site 5.0 s (4.3-5.9, n=29) and 5.3 s (3.3-5.8, n=9). The circulation times between the carotid and femoral intraarterial injection sites to the central intravenous injection site were calculated to 8.5 s and 8.4 s as depicted in Table 1 below.

SMILES	correlation between in vivo generation of NO and effects on blood pressure [3]	other results
O=[N+]([O-])OCC(CO[N+](=O)[O-])O[N+](=O)[O-] [nitroglycerine, 1,2,3-propanetriol-nitrate]	significant correlation between the in vivo generation of NO and effects on blood pressure	Ser239-specific VASP phosphorylation [1]: not nitroglycerine provoked a significant increase in Ser239-specific VASP phosphorylation; SFLLRN-induced platelet aggregation, whole blood [2]: not nitroglycerine significantly inhibited SFLLRN-induced platelet aggregation
CCON=O [ethyl nitrite]	significant correlation between the in vivo generation of NO and effects on blood pressure	–
CCCCON=O [butyl nitrite]	significant correlation between the in vivo generation of NO and effects on blood pressure	–
O=C([O-])O.[Na+] [Sodium bicarbonate]	–	Circulation time (median) between intraarterial and intravenous injection site ([4]; carotid artery and intravenous): 7.0 s; Circulation time (median) between intraarterial and intravenous injection site ([4]; femoral artery and intravenous): 8.9 s
CC(C)CO[N+](=O)[O-] [isobutyl nitrate]	significant correlation between the in vivo generation of NO and effects on blood pressure	–
CC(C)CCON=O [isoamyl nitrite]	significant correlation between the in vivo generation of NO and effects on blood pressure	–
CC(C)CON=O [isobutyl nitrite]	significant correlation between the in vivo generation of NO and effects on blood pressure	–
